Values quoted from earlier work in US20090238867A1, “Nanoparticulate Anidulafungin Compositions and Methods for Making the Same” (priority 2007, published 2009).
Like-named read-outs stand apart in the source and are kept apart here. Numbered stars: 1 amine (or outer) side, 2 acyl side, 3 side chain; on linkers, the order of the positions; unused ones are H or OH. Bridge positions count the residues as written; N and C are the ends. Square brackets hold non-standard residues; d marks the D form. Peptide text beside a SMILES is read from it. * marks the point of attachment. ξ: configuration not given here. pTerphenylCO(4''-OnC5H11) = CCCCCOc1ccc(-c2ccc(-c3ccc(C(=O)*)cc3)cc2)cc1; Orn(4R-OH,5R-OH) = O=C([C@H](C[C@@H](O)[C@@H](O)N[*:3])N[*:1])[*:2]; hTyr(3S-OH,4S-OH) = N[C@H](C(=O)O)[C@H](O)[C@@H](O)c1ccc(O)cc1; Pro(3S-OH,4S-Me) = C[C@H]1CN[C@H](C(=O)O)[C@H]1O; Hyp = O=C(O)[C@@H]1C[C@@H](O)CN1; ξThr(3R) = C[C@@H](O)C(N)C(=O)O

Columns and labels:
Candida albicans [1] = conditions: parenteral; immunocompetent and immunosuppressed rabbits, disseminated infection
glucan synthase = conditions: enzyme present in fungal, not mammalian cells
[2] = test system: cytochrome P450 (CYP450) isoenzymes
Candida albicans [3] = test system: Candida albicans
Candida albicans [4] = conditions: parenteral; immunocompetent and immunosuppressed mice, disseminated infection
[5] = IV
[6] = test system: fluconazole-resistant C. albicans; conditions: immunosuppressed rabbits

For `CCCCCOc1ccc(-c2ccc(-c3ccc(C(=O)N[C@H]4C[C@@H](O)[C@@H](O)NC(=O)[C@@H]5[C@@H](O)[C@@H](C)CN5C(=O)[C@H]([C@@H](C)O)NC(=O)[C@H]([C@H](O)[C@@H](O)c5ccc(O)cc5)NC(=O)[C@@H]5C[C@@H](O)CN5C(=O)C([C@@H](C)O)NC4=O)cc3)cc2)cc1` (stereo partly drawn) [anidulafungin, 1-[(4R,5R)-4,5-Dihydroxy-N^2-[[4″-(pentyloxy)[1,1′:4′,1″-terphenyl]-4-yl]carbonyl]-L-ornithine]echinocandin B] ({pTerphenylCO(4''-OnC5H11)}-[Orn(4R-OH,5R-OH)][ξThr(3R)][Hyp][hTyr(3S-OH,4S-OH)]T[Pro(3S-OH,4S-Me)]; lactam 1-C), the “efficacy as prolonged survival and reduction in mycological burden” value (Candida albicans [1]) is given as “effective”, the in vitro activity (C. tropicalis) is given as “active” and the solubility in ethanol (ethanol) is given as “slightly soluble”. The solubility in water (water) was “practically insoluble”, the “inhibition of glucan synthase” value (glucan synthase) was “inhibits” and the “substrate, inducer or inhibitor of CYP450 isoenzymes” value [2] was “not a clinically relevant substrate, inducer, or inhibitor”. For the same molecule, the clinical effectiveness (Candida; patients with candidemia and/or other forms of invasive candidiasis) was “effectiveness”, the clinical effectiveness (Candida; patients with esophageal candidiasis) was “effectiveness” and the in vitro activity (Candida albicans [3]) was “active”. For the same molecule, the in vitro activity (C. glabrata) was “active”, the “efficacy as prolonged survival and reduction in mycological burden” value (Candida albicans [4]) was “effective” and the “bound to human plasma proteins” value (human plasma proteins) was greater than 99%. The in vitro activity (C. parapsilosis) was “active”, the clearance [5] was “about 1 L/h” and the distribution half-life [5] was 0.5 to 1 h. For the same molecule, the “intersubject variability of systemic exposure (coefficient of variation)” value [5] was less than 25%, the “systemic exposures, dose dependence” value [5] was “dose proportional” and the terminal elimination half-life [5] was 40 to 50 h. The volume of distribution [5] was 30 to 50 L, the “estimated plasma accumulation factor at steady state” value ([5]; after loading dose twice the daily maintenance dose) was “approximately 2” and the mycological burden [6] was “reduces the mycological burden”.
